The results in this text go back to ChEMBL document CHEMBL3227961, “Antileukemic activity of substituted ureidothiazoles, ureidothiadiazoles, and related compounds” (J Med Chem, 1979).

Broadly, the T/C is the ratio of treated to control.

Data set [1] deals with P388. In words: Antitumor activity against mouse P388 cells allografted in BDF1 mouse assessed as tumor growth inhibition at 100 mg/kg administered as qd for 1 to 9 days relative to control. It is filed as functional.
Data set [2] relates to P388. As to the kind of experiment: Antitumor activity against mouse P388 cells allografted in BDF1 mouse assessed as tumor growth inhibition at 50 mg/kg administered as qd for 1 to 9 days relative to control. It is filed as functional.
In data set [3] the test system is P388. In words: Antitumor activity against mouse P388 cells allografted in BDF1 mouse assessed as survival at 100 mg/kg administered as qd for 1 to 9 days. The arrangement: dose 100 mg/kg. The format is functional, organism-based.
The test system of data set [4] is P388. In words: Antitumor activity against mouse P388 cells allografted in BDF1 mouse assessed as survival at 50 mg/kg administered as qd for 1 to 9 days. The format is functional, organism-based. The arrangement: dose 50 mg/kg.
Data set [5] concerns P388. As to the kind of experiment: Antitumor activity against mouse P388 cells allografted in BDF1 mouse assessed as survival at 12.5 mg/kg administered as qd for 1 to 9 days. It is filed as functional, organism-based. Also noted: dose 12.5 mg/kg.
Data set [6] deals with P388. As to the kind of experiment: Antitumor activity against mouse P388 cells allografted in BDF1 mouse assessed as survival at 25 mg/kg administered as qd for 1 to 9 days. It is filed as functional, organism-based. Also noted: dose 25 mg/kg.
Data set [7] has as its system P388. In words: Antitumor activity against mouse P388 cells allografted in BDF1 mouse assessed as tumor growth inhibition at 12.5 mg/kg administered as qd for 1 to 9 days relative to control. It is filed as functional.
Data set [8] deals with P388. As to the kind of experiment: Antitumor activity against mouse P388 cells allografted in BDF1 mouse assessed as tumor growth inhibition at 25 mg/kg administered as qd for 1 to 9 days relative to control. It is filed as functional.
Data set [9] has as its system P388. In words: Antitumor activity against mouse P388 cells allografted in BDF1 mouse assessed as survival at 200 mg/kg administered as qd for 1 to 9 days. It is filed as functional, organism-based. Also noted: dose 200 mg/kg.
Data set [10] relates to P388. As to the kind of experiment: Antitumor activity against mouse P388 cells allografted in BDF1 mouse assessed as tumor growth inhibition at 200 mg/kg administered as qd for 1 to 9 days relative to control. The format is functional.
For data set [11], the system named is P388. As to the kind of experiment: Antitumor activity against mouse P388 cells allografted in BDF1 mouse assessed as survival at 400 mg/kg administered as qd for 1 to 9 days. The format is functional, organism-based. The arrangement: dose 400 mg/kg.
In data set [12] the test system is P388. As to the kind of experiment: Antitumor activity against mouse P388 cells allografted in BDF1 mouse assessed as tumor growth inhibition at 400 mg/kg administered as qd for 1 to 9 days relative to control. It is filed as functional.
In data set [13] the test system is B16. As to the kind of experiment: Antitumor activity against mouse B16 cells allografted in BDF1 mouse assessed as tumor growth inhibition at 6.25 to 50 mg/kg administered as qd for 1 to 9 days relative to control. It is filed as functional, organism-based.
In a further data set the test system is Mus musculus. As to the kind of experiment: Toxicity in mouse B16 cells allografted in BDF1 mouse at 6.25 to 50 mg/kg administered as qd for 1 to 9 days. The format is organism-based.
In data set [14] the test system is B16. As to the kind of experiment: Antitumor activity against mouse B16 cells allografted in BDF1 mouse assessed as tumor growth inhibition at 50 mg/kg administered as qd for 1 to 9 days relative to control. It is filed as functional.
For data set [15], the system named is Lewis lung carcinoma cell line. In words: Antitumor activity against mouse LLC cells allografted in BDF1 mouse assessed as tumor growth inhibition. It is filed as functional.
Data set [16] deals with B16. As to the kind of experiment: Antitumor activity against mouse B16 cells allografted in BDF1 mouse assessed as tumor growth inhibition at 200 mg/kg administered as qd for 1 to 9 days relative to control. It is filed as functional.
The test system of data set [17] is B16. As to the kind of experiment: Antitumor activity against mouse B16 cells allografted in BDF1 mouse assessed as tumor growth inhibition at 100 mg/kg administered as qd for 1 to 9 days relative to control. It is filed as functional.
The subject of data set [18] is B16. As to the kind of experiment: Antitumor activity against mouse B16 cells allografted in BDF1 mouse assessed as tumor growth inhibition at 400 mg/kg administered as qd for 1 to 9 days relative to control. It is filed as functional.
The subject of data set [19] is B16. In words: Antitumor activity against mouse B16 cells allografted in BDF1 mouse assessed as tumor growth inhibition at 25 mg/kg administered as qd for 1 to 9 days relative to control. The format is functional.
The subject of the next data set is L1210. In words: Antitumor activity against mouse L1210 cells allografted in BDF1 mouse assessed as tumor growth inhibition at 200 mg/kg administered as qd for 1 to 9 days relative to control. The format is functional.

Molecules are shown by their SMILES. Active and inactive are the calls of the source. The rule behind the calls is not given here.

Consider `O=C(Nc1ccc(Cl)cc1)Nc1nccs1`, for which the T/C amounted to 118% in the data set on P388 [1] and 111% in the data set on P388 [2]. Moreover, the outcome in the data set on P388 [3] and with P388 [4] was Active.
`O=C(Nc1ccccc1)Nc1nncs1`: the result with P388 [5] and with P388 [6] was Active. For the same compound, the T/C in the data set with P388 [7] and with P388 [8] was 104% throughout.
`CCOC(=O)Nc1nncs1`: the T/C was found to be 142% in the data set with P388 [1], 132% with P388 [2], 151% in the data set on P388 [10] and 108% with P388 [8]. The outcome with P388 [9], in the data set with P388 [6], in the data set with P388 [3] and in the data set with P388 [4] was Active.
As for `O=C(Nc1ccc(C(=O)O)cc1)Nc1nccs1`, the T/C with P388 [1] stood at 150%; in the data set with P388 [2], 143%; in the data set with P388 [10], 163%; in the data set on P388 [8], 125%. In addition, the result with P388 [9], with P388 [6], with P388 [3] and with P388 [4] was Active.
For the compound `CCOC(=O)c1ccc(NC(=O)Nc2nnn[nH]2)cc1`, the result in the data set on P388 [9] and in the data set with P388 [11] was Active. Besides, the results for the T/C in the data set on P388 [10] and in the data set with P388 [12] were 100% and 108%, respectively.
For `CCOC(=O)c1ccc(NC(=O)Nc2nnc(NC(=O)Nc3ccc(C(=O)OCC)cc3)[nH]2)cc1`, the T/C stood at 88% with P388 [1] and 89% in the data set on P388 [2]. Moreover, the result with P388 [3] and in the data set with P388 [4] was Active.
Consider `O=C(Nc1ccccc1)Nc1nccs1`, for which the T/C turned out to be 96% with P388 [1] and 93% with P388 [10]. The result in the data set on P388 [9] and with P388 [3] was Active.
Turning to `O=C(Nc1nncs1)C(F)(F)F`, the T/C in the data set on P388 [2] came out at 161%; with P388 [7], 110%; with P388 [8], 130%. Besides, the outcome in the data set with P388 [5] and with P388 [4] was Active.
On to `N#Cc1ccc(NC(=O)Nc2nncs2)cc1`, for which the T/C with P388 [1] worked out at 140%; in the data set with P388 [2] it was 131%; in the data set on P388 [10], 146%; in the data set on P388 [8], 122%. Besides, the outcome in the data set with P388 [6], with P388 [3] and in the data set with P388 [4] was Active.
`O=C(Nc1nccs1)C(F)(F)F`: the figures for the T/C in the data set with P388 [1], in the data set on P388 [10] and with P388 [12] were 104%, 99% and 108%, respectively. Moreover, the outcome in the data set on P388 [11] and with P388 [3] was Active.
Consider `CNC(=O)Nc1nccs1`, for which the T/C worked out at 96% with P388 [1], 105% in the data set with P388 [2] and 97% in the data set with P388 [10]. For the same compound, the outcome with P388 [9] and with P388 [4] was Active.
In the case of `CCOC(=O)c1ccc(NC(=O)Nc2nc3ccc(OC)cc3s2)cc1`, the outcome in the data set on P388 [9] and in the data set on P388 [11] was Active. Moreover, the T/C in the data set with P388 [10] and in the data set with P388 [12] was 89% in each case.
On to `CCOC(=O)c1ccc(NC(=S)Nc2nccs2)cc1`, for which the T/C with P388 [1] amounted to 95%; with P388 [10] it was 92%; in the data set on P388 [12] it was 92%. Moreover, the outcome with P388 [3] was Active.
Regarding `O=C(CCl)Nc1nccs1`, the T/C in the data set with P388 [1] worked out at 116%; with P388 [2], 103%. Besides, the result in the data set with P388 [3] and with P388 [4] was Active.
With `Cc1ccc(S(=O)(=O)NC(=O)Nc2nccs2)cc1`, the T/C in the data set on P388 [1] amounted to 106%; in the data set on P388 [10], 99%. The outcome with P388 [9] and with P388 [3] was Active.
Turning to `N#Cc1ccc(NC(=O)Nc2nccs2)cc1`, the T/C was 160% in the data set with P388 [1], 132% in the data set with P388 [2] and 124% in the data set on P388 [8]. Moreover, the result in the data set on P388 [6] and with P388 [4] was Active.
On to `CCOC(=O)c1ccc(NC(=O)Nc2nc(C)cs2)cc1`, for which the T/C with P388 [1] came to 127%; in the data set with P388 [2], 109%; in the data set on P388 [10], 138%. Further, the outcome in the data set with P388 [9], with P388 [3] and in the data set with P388 [4] was Active.
On to `CCOC(=O)c1ccc(NC(=O)Nc2scc[n+]2C)cc1.COS(=O)(=O)[O-]`, for which the T/C in the data set on P388 [1] is listed as 100%; in the data set on P388 [10] it was 90%. Also, in the data set with P388 [3], the outcome was Active.
Consider `CCOC(=O)c1ccc(NC(=O)Nc2nncs2)cc1`, for which the T/C in the data set on P388 [1] was 134%; in the data set with P388 [2], 138%; in the data set with P388 [7] it was 119%; in the data set with P388 [8], 132%. In the data set with B16 [13], the TGI result was “inactive”. Besides, the result with P388 [5], in the data set on P388 [6], in the data set with P388 [3] and in the data set with P388 [4] was Active. The Activity entry with Mus musculus is “Non-toxic”.
For the compound `O=C(Nc1ccc([N+](=O)[O-])cc1)Nc1nncs1`, the T/C with P388 [1] was determined as 124%; in the data set with P388 [10], 132%; with P388 [12], 142%. Moreover, in the data set on P388 [3], the result was Active.
Consider `CCOC(=O)c1ccc(NC(=O)Nc2nccs2)cc1`, for which the T/C is 147% in the data set with B16 [14]; 143% with P388 [1]; 149% in the data set on P388 [2]; 167% in the data set with B16 [16]; 166% in the data set on B16 [17]; 162% with P388 [10]. In addition, the T/C is recorded as 153% with B16 [18], 134% with B16 [19], 145% in the data set with P388 [8] and 125% in the data set on L1210. The TGI result in [15] was “inactive”. In addition, the result in the data set on P388 [6], in the data set on P388 [3] and in the data set with P388 [4] was Active.
`CCOC(=O)Nc1nccs1`: the T/C was found to be 102% in the data set with P388 [1] and 108% in the data set on P388 [10]. The result in the data set with P388 [9] and in the data set with P388 [3] was Active.
`O=C(CCl)Nc1nncs1`: the T/C came to 104% in the data set with P388 [1] and 100% in the data set with P388 [10]. Further, the outcome in the data set with P388 [9] and with P388 [3] was Active.
Turning to `Cc1ccc(NC(=O)Nc2nccs2)cc1`, the figures for the T/C in the data set on P388 [1] and with P388 [10] were 99% and 105%, respectively. Moreover, the outcome in the data set with P388 [9] and in the data set with P388 [3] was Active.
As to `CCOC(=O)c1ccc(NC(=O)Nc2nc3ccccc3s2)cc1`, the result in the data set on P388 [9] and in the data set on P388 [11] was Active. The T/C in the data set with P388 [10] and with P388 [12] was 90% throughout.
`O=C(Nc1ccc([N+](=O)[O-])cc1)Nc1nccs1`: the T/C in the data set on P388 [2] stood at 142%; with P388 [7] it was 112%; in the data set on P388 [8], 127%. Moreover, the result in the data set with P388 [5], in the data set on P388 [6] and in the data set with P388 [4] was Active.
Turning to `CCOC(=O)c1ccc(NC(=O)NC2=NCCS2)cc1`, the result with P388 [9] and in the data set on P388 [11] was Active. The T/C in the data set on P388 [10] is reported as 87%; in the data set on P388 [12], 92%.
